Measured values taken from the supplement of paper PMC10307832.

How the values were obtained:
Experiment in all cases: relative viability (nuclei count vs DMSO), 5 days (fraction); higher = more cells survive
Bexarotene + Alpelisib = compound: C=C(c1ccc(C(=O)O)cc1)c1cc2c(cc1C)C(C)(C)CCC2(C)C [Bexarotene] + Cc1nc(NC(=O)N2CCC[C@H]2C(N)=O)sc1-c1ccnc(C(C)(C)C(F)(F)F)c1 [Alpelisib] (partner 2 µM)
Method in brief: (§1)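 Lung cancer cell lines were seeded in 1536-well plates and dosed by pin tool the next day, with either a single drug or a fixed anchor-drug dose combined with five library-drug doses (not always all listed) spaced in √10 steps. Five days later, one step fixed the cells and stained their nuclei (final 0.05% Triton X-100, 1% formaldehyde, 1 ug/ml Hoechst), and nuclei were counted on 4× images. Relative viability is the nuclei count in treated wells divided by the count in vehicle wells, and each value is the median of duplicate plates.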

Bexarotene + Bortezomib = compound: C=C(c1ccc(C(=O)O)cc1)c1cc2c(cc1C)C(C)(C)CCC2(C)C [Bexarotene] + CC(C)C[C@H](NC(=O)[C@H](Cc1ccccc1)NC(=O)c1cnccn1)B(O)O [Bortezomib] (partner 0.002 µM)
Method in brief: as §1

Bexarotene + Olaparib = compound: C=C(c1ccc(C(=O)O)cc1)c1cc2c(cc1C)C(C)(C)CCC2(C)C [Bexarotene] + O=C(c1cc(Cc2n[nH]c(=O)c3ccccc23)ccc1F)N1CCN(C(=O)C2CC2)CC1 [Olaparib] (partner 8 µM)
Method in brief: as §1

Bexarotene + Pemetrexed = compound: C=C(c1ccc(C(=O)O)cc1)c1cc2c(cc1C)C(C)(C)CCC2(C)C [Bexarotene] + Nc1nc2[nH]cc(CCc3ccc(C(=O)N[C@@H](CCC(=O)O)C(=O)O)cc3)c2c(=O)[nH]1 [Pemetrexed] (partner 0.2 µM)
Method in brief: as §1

Cell Line | relative viability (Bexarotene + Alpelisib; first compound 0.08 µM) | relative viability (Bexarotene + Alpelisib; first compound 0.253 µM) | relative viability (Bexarotene + Alpelisib; first compound 0.8 µM) | relative viability (Bexarotene + Alpelisib; first compound 2.53 µM) | relative viability (Bexarotene + Alpelisib; first compound 8 µM) | relative viability (Bexarotene + Bortezomib; first compound 0.08 µM) | relative viability (Bexarotene + Bortezomib; first compound 0.253 µM) | relative viability (Bexarotene + Bortezomib; first compound 0.8 µM) | relative viability (Bexarotene + Bortezomib; first compound 2.53 µM) | relative viability (Bexarotene + Bortezomib; first compound 8 µM) | relative viability (Bexarotene + Olaparib; first compound 0.08 µM) | relative viability (Bexarotene + Olaparib; first compound 0.253 µM) | relative viability (Bexarotene + Olaparib; first compound 0.8 µM) | relative viability (Bexarotene + Olaparib; first compound 2.53 µM) | relative viability (Bexarotene + Olaparib; first compound 8 µM) | relative viability (Bexarotene + Pemetrexed; first compound 0.08 µM) | relative viability (Bexarotene + Pemetrexed; first compound 0.253 µM) | relative viability (Bexarotene + Pemetrexed; first compound 0.8 µM) | relative viability (Bexarotene + Pemetrexed; first compound 2.53 µM) | relative viability (Bexarotene + Pemetrexed; first compound 8 µM)
LCLC-97TM1 | 0.333 | 0.285 | 0.274 | 0.264 | 0.263 | 0.58 | 0.625 | 0.468 | 0.126 | 0.575 | 0.383 | 0.421 | 0.411 | 0.31 | 0.269 | 0.193 | 0.159 | 0.172 | 0.202 | 0.168
LCLC-103H | 1.03 | 0.968 | 1.04 | 1.09 | 0.993 | 1.07 | 1.03 | 0.863 | 1.11 | 1.23 | 0.827 | 0.896 | 0.699 | 0.779 | 0.825 | 0.462 | 0.453 | 0.462 | 0.436 | 0.472
LOU-NH91 | 0.633 | 0.653 | 0.601 | 0.632 | 0.616 | 0.544 | 0.458 | 0.488 | 0.458 | 0.439 | 0.905 | 0.932 | 0.875 | 0.841 | 0.823 | 0.449 | 0.43 | 0.399 | 0.399 | 0.386
LU99A | 0.592 | 0.57 | 0.535 | 0.475 | 0.61 | 1.36 | 1.26 | 1.12 | 1.23 | 1.21 | 0.276 | 0.306 | 0.277 | 0.311 | 0.273 | 0.19 | 0.194 | 0.206 | 0.189 | 0.171
LXF-289 | 1.04 | 1.1 | 1.06 | 1.04 | 0.983 | 1.15 | 1.08 | 1.14 | 1.09 | 1.16 | 1.21 | 1.16 | 1.1 | 1.06 | 1.2 | 1.04 | 1.12 | 1.16 | 0.974 | 1.04
NCI-H23 | 0.812 | 0.782 | 0.551 | 0.829 | 0.656 | 1.1 | 1.03 | 1.02 | 0.9 | 0.962 | 0.344 | 0.341 | 0.289 | 0.294 | 0.3 | 0.948 | 0.715 | 0.669 | 0.626 | 0.686
NCI-H322M | 0.846 | 0.881 | 0.809 | 0.771 | 0.874 | 1.3 | 1.4 | 1.26 | 1.17 | 1.32 | 0.771 | 0.826 | 0.788 | 0.834 | 0.871 | 0.698 | 0.611 | 0.574 | 0.626 | 0.695
NCI-H441 | 1.09 | 1.06 | 0.727 |  | 0.841 | 0.472 | 0.633 | 0.592 |  | 0.619 | 0.608 | 0.61 | 0.628 | 0.599 | 0.495 | 0.268 | 0.319 | 0.26 | 0.257 | 0.249
NCI-H460 | 0.654 | 0.733 | 0.539 | 0.596 | 0.519 | 1.16 | 1.09 | 0.961 | 1.14 | 1.04 | 0.54 | 0.568 | 0.409 | 0.536 | 0.492 | 0.062 | 0.0605 | 0.058 | 0.0661 | 0.0586
NCI-H520 | 0.99 | 0.775 | 0.708 | 0.826 | 0.803 | 0.805 | 0.588 | 0.518 | 0.385 | 0.534 | 0.368 | 0.347 | 0.313 | 0.316 | 0.332 | 0.799 | 0.663 | 0.717 | 0.797 | 0.708
NCI-H596 | 0.581 | 0.6 | 0.479 | 0.668 | 0.565 | 1.01 | 0.986 | 0.836 | 0.795 | 0.85 | 0.715 | 0.679 | 0.85 | 0.672 | 0.817 | 0.47 | 0.482 | 0.451 | 0.456 | 0.736
NCI-H647 | 1.06 | 1.15 | 1.13 | 1.1 | 0.843 | 0.943 | 1.05 | 0.89 | 1.1 | 1.02 | 0.725 | 0.629 | 0.64 | 0.447 | 0.464 | 0.177 | 0.155 | 0.153 | 0.157 | 0.174
NCI-H650 | 1.18 | 1.06 | 1.08 | 1.06 | 1 | 0.898 | 1.08 | 0.847 | 0.624 | 0.726 | 0.325 | 0.432 | 0.354 | 0.356 | 0.382 | 1.09 | 0.887 | 0.882 | 0.832 | 0.918
NCI-H661 | 0.664 | 0.587 | 0.776 | 0.5 | 0.645 | 0.807 | 0.807 | 0.803 | 0.81 | 0.761 | 0.769 | 0.756 | 0.73 | 0.751 | 0.707 | 1.05 | 0.91 | 0.892 | 0.872 | 0.869
NCI-H838 | 1.1 | 1.11 | 1.14 | 1.08 | 1.06 | 0.995 | 1.16 | 0.803 | 0.777 | 0.949 | 0.809 | 0.784 | 0.74 | 0.725 | 0.745 | 0.275 | 0.254 | 0.272 | 0.251 | 0.249
NCI-H1355 | 0.957 | 0.894 | 0.765 | 0.916 | 0.876 | 1.17 | 1.35 | 1.21 | 1.32 | 1.14 | 0.805 | 0.76 | 0.781 | 0.785 | 0.778 | 1.14 | 1.15 | 0.983 | 1.13 | 1.01
NCI-H1437 | 1.02 | 1.06 | 0.946 | 1.11 | 0.829 | 0.528 | 0.621 | 0.611 | 0.546 | 0.49 | 0.613 | 0.638 | 0.599 | 0.623 | 0.597 | 0.352 | 0.302 | 0.338 | 0.296 | 0.322
NCI-H1651 | 1 | 1 | 1.09 | 0.997 | 0.921 | 1.14 | 0.843 | 0.965 | 0.944 | 1.04 | 0.201 | 0.226 | 0.208 | 0.206 | 0.197 | 0.709 | 0.487 | 0.61 | 0.617 | 0.622
NCI-H1666 | 1 | 0.877 | 0.862 | 0.897 | 0.761 | 0.742 | 0.701 | 0.727 | 0.719 | 0.75 | 0.714 | 0.754 | 0.694 | 0.691 | 0.63 | 0.8 | 0.912 | 0.736 | 0.844 | 0.7
NCI-H1734 | 0.718 | 0.708 | 0.652 | 0.637 | 0.633 | 0.896 | 0.98 | 0.936 | 0.87 | 0.818 | 0.669 | 0.648 | 0.573 | 0.709 | 0.633 | 0.438 | 0.419 | 0.454 | 0.361 | 0.363
NCI-H1755 | 0.917 | 1.05 | 0.94 | 0.876 | 0.917 | 1.02 | 1.03 | 1.02 | 1 | 0.957 | 0.982 | 0.957 | 1.03 | 0.951 | 0.887 | 0.451 | 0.458 | 0.498 | 0.452 | 0.425
NCI-H1792 | 0.534 | 0.697 | 0.532 | 0.585 | 0.413 | 0.871 | 0.981 | 0.809 | 0.761 | 0.681 | 0.229 | 0.435 | 0.393 | 0.337 | 0.32 | 1.1 | 0.848 | 0.487 | 0.482 | 0.455
NCI-H1915 | 1.17 | 1.06 | 1.04 | 1 | 0.95 | 1 | 0.989 | 0.896 | 0.993 | 0.911 | 0.265 | 0.262 | 0.284 | 0.278 | 0.242 | 0.519 | 0.492 | 0.54 | 0.473 | 0.439
NCI-H1975 | 0.705 | 0.783 | 0.665 | 0.669 | 0.836 | 0.414 | 0.376 | 0.452 | 0.428 | 0.346 | 1.03 | 0.906 | 0.783 | 0.851 | 0.836 | 0.327 | 0.331 | 0.305 | 0.334 | 0.323
NCI-H1993 | 0.657 | 0.645 | 0.689 | 0.735 | 0.684 | 1.01 | 0.991 | 0.984 | 0.978 | 1.1 | 0.979 | 1.08 | 0.94 | 1.01 | 0.896 | 0.714 | 0.611 | 0.537 | 0.534 | 0.514
NCI-H2009 | 1.27 | 1.23 | 1.11 | 1.17 | 1.06 | 1.16 | 1.27 | 1.13 | 1.08 | 1 | 0.772 | 0.697 | 0.727 | 0.664 | 0.663 | 1.09 | 1.04 | 1.12 | 0.973 | 0.998
